Read-outs that look alike come from different tables or passages of the source.
How the values were obtained:
[1] = tested on: L1210 murine leukemia cells implanted ip; assay: In vivo antitumor activity (L1210, ip); details: for Surviving Mice: live animals after 250 days
Method: Therefore, the in vivo antitumor activity of (+)-6 was assessed alongside seco-CBI-indole2 (4) in an antitumor model consisting of L1210 murine leukemia cells implanted ip into […] which has been used historically as an initial antitumor model for comparisons in this class.^11,12,14,15 A dose range of 300 to 9000 μg/kg for prodrug (+)-6 (scaled to its in vitro cytotoxic activity IC50) and 60 to 500 μg/kg for seco-CBI-indole2 (4) and a dosing schedule (administered three times ip on days 1, 5, and 9) for both compounds was employed.
B6D2F1 mice were injected intraperitoneal (i.p.) with syngeneic L1210 cells (1×10^6) on day 0. Ten mice were randomly assigned to control vehicle or treatment groups for compounds (+)-4 and (+)-6 at doses of 60, 100, 250, and 500 μg/kg/inj for (+)-4 or 300, 1000, 3000, and 9000 μg/kg/inj for (+)-6. Compounds (+)-4 and (+)-6 were formulated in 100% DMSO, and injected i.p. on study days 1, 5, and 9. Following injection of tumor cells, animals were monitored daily and weighed two times per week. Percent survival (T/C) for treated and control groups were determined by dividing the total survival days for each treatment group by the total survival days for the control group and multiplying ×100. All animal studies were carried out in the animal facilities of The University of Kansas Medical Center with strict adherence to the guidelines of the IACUC Animal Welfare Committee of KUMC (IACUC approval #2009-1837).

[2] = Stability in mouse plasma (Table 4)
[3] = Stability in pH 7.0 phosphate buffer; details: for half-life: buffer
[4] = tested on: L1210 murine leukemia cell line; assay: In vitro cytotoxic activity (cell growth inhibition), L1210; type: cell-based; details: for IC50: Mus musculus
Method: In Vitro Cytotoxic Activity. Both (+)- and ent-(−)-6 and their N-Boc precursors 16 were tested for cell growth inhibition in a cytotoxic assay with the L1210 murine leukemia cell line.

w794 DNA = assay: DNA alkylation in cell-free systems; type: biochemical
Source text: Lane 1, control DNA; lanes 2-5, Sanger G, C, A, and T sequencing reactions; lanes 6-8, (+)-1 (1×10^−4 to 1×10^−6); lanes 9-10, (−)−1 (1×10^−3 to 1×10^−4); lanes 11-12, (+)-6 (1×10^−1 to 1×10^−2).

[5] = Stability in human plasma
Method: Reagents and solvents were purchased reagent-grade and used without further purification. Pooled human plasma, with sodium citrate as an anticoagulant, was purchased from Innovative Research and stored at −20° C. […] All reactions were performed in oven-dried glassware under an Ar atmosphere. Evaporation and concentration in vacuo was performed at 20° C. […] Chiral phase HPLC was performed using a Shimadzu HPLC on a semi-preparative Diacel ChiralCel OD column (0.46 cm×25 cm) with a flow rate of 7 mL/min and with UV detection at λ=254 nm. Optical rotations were determined on a Rudolf Research Analytical Autopol III Automatic Polarimeter (λ=589 nm, 25° C.).

[6] = 300 μg/kg i.p. on days 1, 5, and 9
[7] = 1000 μg/kg i.p. on days 1, 5, and 9
[8] = 3000 μg/kg i.p. on days 1, 5, and 9
[9] = 9000 μg/kg i.p. on days 1, 5, and 9

O=C1Nc2cccc3c4c(cc(c23)O1)N(C(=O)c1cc2cc(NC(=O)c3cc5ccccc5[nH]3)ccc2[nH]1)C[C@H]4CCl [Compound 6, N-(2-(10-(Chloromethyl)-5-oxo-5,8,9,10-tetrahydro-4H-pyrrolo[3′,2′:5,6]naphtho[1,8-de][1,3]oxazine-8-carbonyl)-1H-indol-5-yl)-1H-indole-2-carboxamide]
MSP (Mean Survival Period) [1, 6]: 24.7 days
T/C (Treated/Control MSP x 100) [1, 6]: 140
Surviving Mice [1, 6]: 0/10
MSP (Mean Survival Period) [1, 7]: >48.5 days
T/C (Treated/Control MSP x 100) [1, 7]: >275
Surviving Mice [1, 7]: 1/10
MSP (Mean Survival Period) [1, 8]: >55.3 days
T/C (Treated/Control MSP x 100) [1, 8]: >310
Surviving Mice [1, 8]: 1/10
MSP (Mean Survival Period) [1, 9]: >172.6 days
T/C (Treated/Control MSP x 100) [1, 9]: >980
T/C (Treated/Control MSP x 100) ([1]; 9000 μg/kg i.p. on days 1, 5, and 9, listed as (+)-6): > 980
Surviving Mice [1, 9]: 5/10
antitumor activity over the dose range examined ([1]; 300 to 9000 μg/kg (30-fold range) i.p. on days 1, 5, and 9): productive antitumor activity over the entire and much larger dose range examined
tolerance at the injection sites ([1]; ip administration, compared with the free drug): tolerated at the injection sites of the animals much better than the free drug
half-life [2]: 12 h
half-life ([3]; pH 7, Stability t1/2, pH 7.0 phosphate buffer, Table 4): > 168 h
half-life ([3]; pH 7, t1/2, pH 7.0 phosphate buffer): > 672 h
cleavage of the prodrug ([3]; pH 7.0 phosphate buffer): no cleavage observed
fold less potent than the parent drug 20 ([4]; L1210): 30-70 fold
fold more potent than its unnatural enantiomer ([4]; L1210): 6 fold
potency of natural (S)- versus unnatural (R)-enantiomer ([4]; L1210): about one order of magnitude more potent
times more potent than its N-Boc precursor 16 ([4]; L1210): 100 to 1000 times
fold less potent than the free drug seco-CBI-indole2 4 ([4]; L1210, natural enantiomer): approximately 200 fold
IC50 ([4]; L1210, natural (S)-enantiomer, Table 4, read-out: In vitro IC50 L1210 natural): 6.6 nM
IC50 ([4]; L1210, natural enantiomer, Table 2, read-out: IC50 L1210 natural): 6.6 nM
IC50 ([4]; L1210, unnatural (R)-enantiomer, Table 4, read-out: In vitro IC50 L1210 unnatural): 40 nM
IC50 ([4]; L1210, unnatural enantiomer, Table 2, read-out: IC50 L1210 unnatural): 40 nM
IC50 ([4]; L1210, stated range, read-out: in vitro cellular potency (IC50)): 1 to 10 nM
DNA alkylation (w794 DNA): incapable of alkylating DNA
free drug release ([5]; human plasma, 48 h): 5%
half-life ([5]; human, plasma): > 48 h
